Reference: patent publication US5488051A, “Substituted 5,6-dihydro-5-oxo-1,4-dithiino-(2,3-d)-pyridazine-2,3-dicarbonitriles, compositions containing them and their use as antimicrobials” (The Dow Chemical Company, priority 1994, dated 1996)
Converted amounts (≈) assume the structure as drawn. Like-named read-outs stand apart in the source and are kept apart here.

What was measured:
[1] = test system: Klebsiella pneumonias (Kp); test: MIC for Klebsiella pneumonias, nutrient agar; assay type: cell-based, Klebsiella pneumonias ATCC 8308; conditions: 30° C., 48 hours, read-out: Minimum Inhibitory Concentration (MIC), Kp
In short: (§1)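 Nutrient agar, pH 6.8 or 8.2; cpd 1–500 ppm final in agar (from 1% acetone/water soln), plates dried 24 h; inoculum 10^8 CFU/mL via Steer's replicator; 30° C, 48 h; growth/no growth read.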

[2] = test system: Fusarium oxysporum (Fo); test: MIC for Fusarium oxysporum, malt yeast agar; assay type: cell-based, Fusarium oxysporum ATCC 48112; conditions: malt yeast agar; 30° C., 72 hours for fungi; read-out: Minimum Inhibitory Concentration (MIC), Fo
In short: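 Agar dilution on malt yeast agar with compound (from 1% acetone/water solution) at final 0, 1.0, 2.5, 5, 10, 25, 50, 100, 250, 500 ppm. Plates inoculated by replicator with saline suspensions (1:9 diluted) of 7-day cultures; incubated at 30 °C, read at 48 h for yeast and 72 h for fungi.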

[3] = test system: Pseudomonas aeruginosa (Pa); test: MIC for Pseudomonas aeruginosa, nutrient agar; assay type: cell-based, Pseudomonas aeruginosa ATCC 10145; conditions: 48 hours, read-out: Minimum Inhibitory Concentration (MIC), Pa
In short: as §1

[4] = test system: marine organism growth; test: Marine antifouling rating of coated test panels exposed to marine environment; set-up: species or system marine organisms; conditions: scale 10 (completely free of growth) to 0 (completely covered); for Marine Antifouling Rating, 10 Week Test, Bottom Panel / Marine Antifouling Rating, 10 Week Test, Top Panel: 10 weeks; for Marine Antifouling Rating, 10 Week Test, Top Panel: untreated Control 7
Protocol: Test panels are prepared from clear, rigid polyvinyl chloride film that is 0.381×10^-3 m thick and has one textured surface. The test panels are 0.1524 m by 0.1524 m squares that have 0.00635 m holes punched at corners on 0.127 m centers. A 0.102 square template, with a 0.067 m diameter hole at the center, is attached to the center of the textured surface of the test panels.
A candidate marine antifoulant compound (1.0 g) is stirred into a resinous latex binder (9.0 g). A portion of the compound/binder mixture (1.5 g) is added to the center of the test panel and uniformly spread over the circular area inside the template.
Water is added dropwise as needed to properly spread the compound/binder mixture. The template prevents the compound/binder mixture from spreading beyond the uncovered area. The test panel is allowed to sit for between ten to thirty minutes until the edge of the spread compound/binder mixture has dried. The template is then removed. The test panel is then allowed to dry for 8 to 12 hours at room temperature.
Two test panels are prepared for each candidate marine antifoulant compound. Two control test panels are also prepared by only treating with the resinous latex binder. One test panel of each candidate marine […] compound is attached over a white background to the topside of an exposure support apparatus. The second test panel is attached over a black background to the underside of the exposure support apparatus. The exposure support apparatus is placed horizontally 0.0254 m under a marine surface with the white background topside facing up. The exposure support apparatus is exposed to the marine environment for both 10 and 20 weeks during which time the control test panels become substantially covered with mature marine organism growth on both the topside and underside exposures.
After being removed from the exposure support apparatus, each test panel is inspected and rated for marine organism growth on both the treated and untreated areas of the test panel. The marine organisms present on the treated and untreated areas are noted. The presence of algae spores and bacterial slime are noted but not included in rating each test panel. The test panels are rated on a scale from 10 (representing completely free of marine organism growth) to 0 (representing completely covered with marine organism growth).
In Table V, the marine antifouling rating values for some of the compounds listed in Table I are set forth, as well as the ratings for control panels (using no marine antifouling compound, and referred to in Table V as "Control") and panels using a standard commercial marine antifouling compound (with copper (I) oxide (Cu2 O) as the active agent and referred to in Table V as "STANDARD II").

[5] = bottom panel (black background), untreated Control 1

In the case of `Cc1ccc(-n2ncc3c(c2=O)SC(C#N)=C(C#N)S3)cc1` [B, 5,6-dihydro-6-(4-methylphenyl)-5-oxo-1,4-dithiino-(2,3-d)-pyridazine-2,3-dicarbonitrile], the MIC ([1]; pH 6.8, nutrient agar) is reported as 50 µg/mL (≈ 154 µM), the MIC ([1]; pH 8.2, nutrient agar) is reported as over 500 µg/mL and the MIC [2] is reported as 25 µg/mL (≈ 77.1 µM). The MIC ([3]; pH 6.8, 30° C.) was over 500 µg/mL, the MIC ([3]; pH 8.2, 30° C.) was over 500 µg/mL and the “Marine Antifouling Rating, 10 Week Test, Bottom Panel” value [4, 5] was 4. For the same compound, the “Marine Antifouling Rating, 10 Week Test, Top Panel” value ([4]; top panel (white background)) was 10, the “Marine Antifouling Rating, 20 Week Test, Bottom Panel” value ([4]; 20 weeks, bottom panel (black background), untreated Control 1) was 1 and the “Marine Antifouling Rating, 20 Week Test, Top Panel” value ([4]; 20 weeks, top panel (white background), untreated Control 1) was 1.

`N#CC1=C(C#N)Sc2c(cnn(-c3ccc(Br)cc3)c2=O)S1` [C, 5,6-dihydro-6-(4-bromophenyl)-5-oxo-1,4-dithiino-(2,3-d)-pyridazine-2,3-dicarbonitrile] showed an MIC ([1]; pH 6.8, nutrient agar) of over 500 µg/mL, an MIC ([1]; pH 8.2, nutrient agar) of over 500 µg/mL and an MIC [2] of 10 µg/mL (≈ 25.7 µM). The MIC ([3]; pH 6.8, 30° C.) was over 500 µg/mL, the MIC ([3]; pH 8.2, 30° C.) was over 500 µg/mL and the “Marine Antifouling Rating, 10 Week Test, Bottom Panel” value [4, 5] was 1. The “Marine Antifouling Rating, 10 Week Test, Top Panel” value ([4]; top panel (white background)) was 7.
